Results taken from US20250195490A1, “ALPHA-METHYLENE AND AMINOMETHYL LACTONES AND LACTAMS FOR TREATMENT OF CLOSTRIDIOIDES DIFFICILE INFECTION (CDI)” (Purdue Research Foundation, priority 2022, published 2025).
In brackets after ≈: the same amount, converted by molar mass.

Assays:
[1] = test system: Bi. longum; assay: MIC against human normal gut microbiota: Bifidobacterium longum; type: cell-based; conditions: Bi. longum HM 848
Description: (§1) The activity of the selected lactones against the human gut microbiota was also examined. Microbiota interfere with C. difficile's ability to colonize the gastrointestinal tract and subsequently cause infection. Many antibiotics inhibit/kill the endogenous microflora, which permits enhanced colonization by C. difficile and infection. Three different bacterial species that are present in the gut microflora were used in this experiment; Bifidobacterium (anaerobic Gram-positive bacteria), Bacteroides (anaerobic Gram-negative bacteria) and Lactobacillus (microaerophilic Gram-positive bacteria). Ideal compounds/drugs are those with selective antibacterial activity against C. difficile so as to protect the indigenous microflora present in the GI tract from being damaged/killed (which will exacerbate infections caused by C. difficile).
(§2) Bifidobacterium and Bacteroides were first grown for 48 hours at 37° C., anaerobically, using brain heart infusion supplemented (BHIS) agar (brain heart infusion agar supplemented with hemin, vitamin K and L-cysteine). Lactobacillus was cultivated on MRS agar and incubated in the presence of 5% CO2 for 48 hours at 37° C. Each bacterium was suspended in phosphate-buffered saline (PBS) to achieve 0.5 McFarland standard and subsequently diluted in brain heart infusion supplemented broth (for Bifidobacterium and Bacteroides) or in MRS broth (for Lactobacillus) to achieve a bacterial inoculum of approximately 5×10^5 CFU/mL. Bacteria were then seeded in 96-well plates containing serial dilutions of the compounds and incubated for 48 hours. MICs reported in Table 4 are the minimum concentration of compound/control drug that inhibited the visual growth of bacteria.

[2] = test system: L. gasseri; assay: MIC against human normal gut microbiota: L. gasseri; type: cell-based, Lactobacillus gasseri; conditions: L. gasseri HM 407
Description: as §1, §2

[3] = test system: MRSA (USA300); assay: microbe, parasite or virus in culture; type: cell-based, Staphylococcus aureus; conditions: aerobic, 37° C., at least 18 hours
Protocol: (§3) Method: The minimum inhibitory concentration (MIC) of the compounds and control drugs, linezolid (antibiotic), vancomycin (antibiotic), 5-fluorocytosine (5-FC, antifungal drug), and fluconazole (antifungal drug) was determined using the broth microdilution method according to the guidelines outlined by the Clinical and Laboratory Standards Institute (CLSI) against clinically relevant bacterial (methicillin-resistant Staphylococcus aureus (MRSA), vancomycin-resistant Enterococcus faecalis (VRE), vancomycin-resistant Enterococcus faecium (VRE), Clostridioides difficile and Escherichia coli) and fungal (Candida albicans) strains. A solution equivalent to 0.5 McFarland standard was prepared from each strain and diluted in cation-adjusted Mueller-Hinton broth (for S. aureus and E. coli), tryptone soy broth (for E. faecalis), or brain heart infusion broth (for E. faecium) to achieve a bacterial inoculum of about 5×10^5 CFU/mL. C. difficile strains were cultured in brain heart infusion broth supplemented with hemin and vitamin K. C. albicans was diluted in RPMI medium supplemented with 3-(N-morpholino) propanesulfonic acid to achieve a fungal concentration of about 1.5×10^3 CFU/mL. Compounds and control drugs were added in the first row of the 96-well plates and diluted with media containing bacteria (to achieve a concentration gradient ranging from 128 to 1 μg/mL). For MRSA, VRE, and E. coli strains, plates were then incubated aerobically at 37° C. for at least 18 hours. C. albicans was incubated aerobically at 37° C. for 24 hours. Plates containing C. difficile were incubated anaerobically at […] for 48 hours.

[4] = test system: Ba. fragilis; assay: MIC against human normal gut microbiota: Bacteroides fragilis; type: cell-based
Description: as §1, §2

[5] = test system: Clostridioides difficile; assay: MIC by broth microdilution against Clostridioides difficile (Table 1); type: cell-based; conditions: anaerobic, 48 hours; strain BAA-1870
Protocol: as §3

[6] = test system: L. crispatus; assay: MIC against human normal gut microbiota: L. crispatus; type: cell-based, Lactobacillus crispatus
Description: as §1, §2

[7] = test system: Ba. dorsei; assay: MIC against human normal gut microbiota: Bacteroides dorsei; type: cell-based
Description: as §1, §2

[8] = test system: Bi. breve; assay: MIC against human normal gut microbiota: Bifidobacterium breve; type: cell-based; conditions: Bi. breve HM 856
Description: as §1, §2

[9] = test system: L. reuteri; assay: MIC against human normal gut microbiota: L. reuteri; type: cell-based, Lactobacillus reuteri; conditions: L. reuteri HM 120
Description: as §1, §2

[10] = test system: clinically important Clostridioides difficile strains; assay: MIC against clinically important Clostridioides difficile strains; type: cell-based
Protocol: (§4) The antibacterial activity of compounds 48, 50, 51, 61 and 85 against a panel of Clostridioides difficile strains was evaluated. A bacterial solution equivalent to 0.5 McFarland standard was prepared and diluted in brain heart infusion broth supplemented with hemin and vitamin K. Compounds and control drugs were added in the first row of 96-well plates and serially diluted with media containing bacteria (to achieve a concentration gradient ranging from 128 to 1 μg/mL). Plates were then incubated anaerobically at […] for 48 hours.

[11] = test system: L. casei; assay: MIC against human normal gut microbiota: L. casei; type: cell-based, Lactobacillus casei; conditions: L. casei HM 334
Description: as §1, §2

[12] = test system: hypervirulent Clostridioides difficile strains; assay: MIC against hypervirulent Clostridioides difficile strains; type: cell-based
Protocol: as §4

COc1cc(C2OC(=O)C(CN3CCCCC3)C2c2ccccc2Br)ccc1OCc1ccccc1 (racemic) [Compound 27]
MIC [1]: >128 µg/mL | MIC [2]: >128 µg/mL | MIC MRSA (USA300) [3]: >128 µg/mL | MIC ([4]; Ba. fragilis HM 709): >128 µg/mL | MIC ([4]; Ba. fragilis HM 710): >128 µg/mL | MIC ([4]; Ba. fragilis HM 711): >128 µg/mL | MIC ([4]; Ba. fragilis HM 714): >128 µg/mL | MIC Clostridioides difficile [5]: 1 µg/mL (≈ 1.82 µM) | MIC ([6]; L. crispatus HM 375): >128 µg/mL | MIC ([6]; L. crispatus HM 421): >128 µg/mL | MIC ([7]; Ba. dorsei HM 29): >128 µg/mL | MIC ([7]; Ba. dorsei HM 717): >128 µg/mL | MIC [8]: >128 µg/mL | MIC [9]: >128 µg/mL | MIC ([10]; CD strain 16): 1 µg/mL (≈ 1.82 µM) | MIC ([10]; CD strain 18): 2 µg/mL (≈ 3.63 µM) | MIC ([10]; CD strain 19): 1 µg/mL (≈ 1.82 µM) | MIC ([10]; CD strain 1801): 1 µg/mL (≈ 1.82 µM) | MIC ([10]; CD strain 43255): 1 µg/mL (≈ 1.82 µM) | MIC ([10]; CD strain P6): 2 µg/mL (≈ 3.63 µM) | MIC ([10]; CD strain P7): 1 µg/mL (≈ 1.82 µM) | MIC ([10]; CD strain P13): 1 µg/mL (≈ 1.82 µM) | MIC ([10]; CD strain P19): 2 µg/mL (≈ 3.63 µM) | MIC [11]: >128 µg/mL | MIC ([12]; CD strain 81): 2 µg/mL (≈ 3.63 µM) | MIC ([12]; CD strain 82): 2 µg/mL (≈ 3.63 µM) | MIC ([12]; CD strain 83): 2 µg/mL (≈ 3.63 µM) | MIC ([12]; CD strain 84): 4 µg/mL (≈ 7.27 µM) | MIC ([12]; CD strain 85): 2 µg/mL (≈ 3.63 µM) | MIC ([12]; CD strain 86): 2 µg/mL (≈ 3.63 µM) | MIC ([12]; CD strain 87): 2 µg/mL (≈ 3.63 µM) | MIC ([12]; CD strain 90): 1 µg/mL (≈ 1.82 µM) | MIC ([12]; CD strain 49279): 2 µg/mL (≈ 3.63 µM) | MIC ([12]; CD strain 49287): 1 µg/mL (≈ 1.82 µM) | MIC ([12]; CD strain 49291): 1 µg/mL (≈ 1.82 µM)
